Entries after “also recorded” stand apart in the source; their conditions may differ. Read-outs that look alike come from different tables or passages of the source.
Tests used:
human eosinophils = experiment: Apoptosis and survival of purified human eosinophils in culture (cytology, blue trypan); format: cell-based; conditions: for Apoptosis of eosinophils (percentage of apoptotic eosinophils): ZnPP-IX 10 μM, IL-5 10 pM where present, RPMI 1640, average of three experiments; for Number of apoptotic cells: in the presence of IL-5
Protocol: A leukocyte-rich suspension is obtained after sedimentation of whole blood, anticoagulated in the presence of dextran T500 (4.5%). 35 ml of aliquots are added to 15 mi of Ficoll. After centrifugation (30 min, 1000×g) the mononucleated cells at the interface are eliminated. The pellet which contains neutrophils, eosinophils and the corpuscles is washed and subjected to an osmotic shock in order to eliminate the corpuscles. The magnetic cellular separation system (MACS; Miltenyi Biotec) is used to purify the eosinophils by negative selection [Hansel et al, 1991, J. Immunol. Meth. 145: 105-110]. Magnetic particles anti-CD16 (1 μl/1×10^6 cells) are added to the suspension of neutrophils and eosinophils at 4° C. and kept at this temperature for 40 minutes with several placement gain in solution. The suspension is then added at the summit of the separation column in the presence of a magnetic field, the tap open at the base. 30 ml of PBS/FCS is passed through the column and the effluent is recovered. The magnetically marked cells (neutrophils) remain in the column; the unmarked cells (eosinophils) are recovered in the effluent and washed. PBS=Phosphate buffered saline FCS=Foetal calf serum
The freshly purified eosinophils are again placed in suspension (1.5-3×10^5 cells per ml) in RPMI 1640 (Gibco BRL) supplemented with 0.1 mM non essential amino acids, 100 U/ml of penicillin, 10 μg of streptomycine, 10 mM of HEPES, 2 mM of glutamine and 10% FCS. The aliquots of 160 μl of cellular suspension are deposited in each of the wells of a 96 well tray (Costar) containing 20 μl of IL-5 as survival factor. Twenty μl of the substance to be studied in a precise concentration or 20 μl of the medium on its own as a control are deposited in the corresponding wells. The cellular viability and the percentage of apoptotic eosinophils are counted at 24 hrs and 48 hrs with the aid of the methods below.
Blue trypan makes it possible to evaluate cellular viability. The cellular suspension is added to an equal volume of blue trypan at 0.1% in PBS. The abso!ute number of cells excluding the blue trypan (=“living” cells) per unit volume is obtained by counting the cells in a hemocytometer (Mallassez).
Cytology: makes it possible to visualise the morphological modification of the eosinophils during apoptosis in vitro. The cellular suspension is cyto-centrifuged then the strips are coloured (kit RAL 555, Prolabo). The percentage of apoptotic cells is established by optical microscope according to their characteristic morphology (pyknotic nucleus with condensed chromatine or without a nucleus, reduction in the cells diameter, cytoplasmic condensation). The freshly isolated eosinophils from the blood circulation have a characteristic morphology in optical microscopy: a granular cytoplasm coloured red-orange by eosin and a very often bivobed nucleus. In the absence of survival factors such as IL-5, IL-3 or GM-CSF, the first morphological signs of apotosis of the eosinophils appear. The chromatin condenses and the nucleus of the eosinophil takes on a pyknotic appearance. This pyknotic appearance of the nucleus, standard in the course of apoptosis, is however rarely observed in the eosinophil, perhaps because of its brevity. Another morphological sign characteristic of apoptosis is the reduction of cellular volume which is very marked in the eosinophil (Beauvais et al, 1995, J, Leukoc. Biol. 57: 851-855). After 48 hours of incubation, the nuclear structures have disappeared in the majority of eosinophils which now appear in the form of anucleated vesicles.

eosinophils [1] = conditions: in vitro; cited from earlier work
eosinophils [2] = experiment: TUNEL method, DNA fragmentation in situ in eosinophils; format: cell-based, human; conditions: IL-5 (lpM) and ZnPP-IX (10 μM); 48 hours
Protocol: The TUNEL method makes it possible to visualise the apoptotic nuclei containing the fragmented DNA. Its assumption rests on the enzymatic fixation of a fluorescent marker (Fluoresceine-12-dUTP) at the free extremities of the DNA (3′-OH DNA). This technique consists of the cells in each well being cytocentrifuged then fixed by formaldehyde solution at 4% (25 min at 4° C.). After washing, the preparations are made permeable by a solution of Triton X-100 0.2% (5 min at 20° C.). The cells are incubated (1 hr at 37° C.) in the presence of a solution containing fluoresceine-12-dUTP and the enzyme TdT (terminal deoxynucleotidal transferase). The reaction is […] in a stopping solution. After mounting under a coverglass, the preparation is visualized under the fluorescence microscope (Apoptosis Detection System Fluorescein. Promega, Madison, Wis., USA).
In the presence of IL-5 and the control solution, there is no marking of the nuclei.

neonatal jaundice [3] = conditions: Rodgers et al, 1990; i.v. 25 mg/kg; 26 hrs; Rhesus monkeys (new-born); cited from earlier work
steroidogenesis = conditions: Trakshel et al, 1992; s.c. 31 mg/kg (2x −4j); 7 days; rats; cited from earlier work
[4] = test system: intestinal, splenic and hepatic hemoxygenesis; conditions: Vrema et al, 1988; p.o. 25 mg/kg; 6 hrs; new-born and adult rats; cited from earlier work
[5] = −20° C., protected from light and humidity; cited from earlier work
[6] = literature in vivo studies; rats, mice, monkeys; i.v., i.p., sub-cutaneous; cited from earlier work
cerebral ischemia = conditions: i.p. 50 mg/kg, 24 hrs, adult rats, cited from earlier work
[7] = test system: peritoneal hypereosinophilia; experiment: Ovalbumin-induced peritoneal hypereosinophilia in mice; format: in vivo, Swiss mice; conditions: 0.1 ml of 1 mM (3.1 mg/kg) intraperitoneal with ovalbumin challenge; 48 hrs; two mice
Protocol: Swiss mice (about 20 g) are immunised sub cutaneously twice (with a 6 day interval) with 100 μg of ovalbumin in 0.4 ml of a suspension at 4 mg/ml of Al(OH)3 in NaCl 0.9%. One week after the second injection, 0.2 ml of ovalbumin at 5 μg/ml of ovalbumin are administered by intraperitoneal injection. The control mice are injected with the vehicle only.
The mice are killed at different times (overdose of ether) and—after dissection —undergo a peritoneal wash with 6ml of NaCl 0.9% (heparinised). After slight massage, the liquid of the wash is collected and the cellular concentration is measured in a hemocytometer. Cytocentrifugation strips are made and coloured by the Wright colorant (kit RAL 555, Prolabo, France). The differential count of mononucleated (monocytes+macrophages+lymphocytes), eosinophil and neutrophil cells is carried out objectively×100 by immersion in oil. During the peritoneal washing of the control mice, the residual cells are essentially macrophages, whereas during the peritoneal washing of mice immunised by ovalbumin, an inflammatory infiltrate with the apparition of polynuclear eosinophils and neutrophils is observed.
The ZnPP-IX is Injected at the same time as the second injection of ovalbumin (OVA). […] The results are represented by FIGS. 4, 5 and 6. Each column represents the average for two mice at 48 hrs.

[8] = test system: hyperbilirubinemia due to iatrogenic hemolysis; conditions: Vreman et al, 1990; i.v. 25 mg/kg; 24 hrs; Rhesus monkeys (new-born); cited from earlier work
inflammation = conditions: Nagai et al, 1992; 30 mg/kg; adult rats and mice; cited from earlier work
neonatal jaundice [9] = conditions: Rodgers et al, 1996; i.p. 25 mg/kg; 21 days; new-born rats; cited from earlier work
[10] = Hintz et al, 1990; i.p. 37 mg/kg; 12 hrs; new-born rats; cited from earlier work
neonatal jaundice [11] = conditions: Qato et Maines, 1985; s.c. 25 mg/kg; 12 days; Rhesus monkeys and cynomolgus; cited from earlier work

With “IL-5: Cytokine used as survival factor for the eosinophils in culture” as the compound, how does the “Apoptosis of eosinophils (percentage of apoptotic eosinophils)” value (human eosinophils; 24 hrs) read?
The value was 2 ± 2.

What about the “Apoptosis of eosinophils (percentage of apoptotic eosinophils)” value (human eosinophils; 48 hrs) of the same compound?
Its value is 2 ± 1.

And the “Apoptosis of eosinophils (percentage of apoptotic eosinophils)” value (human eosinophils; time 0)?
The value was 0.

Which Survival of eosinophils (eosinophils [1]) does the source give for CCN(CC)CC(=O)Nc1c(C)cccc1C [lidocaine] here?
The Survival of eosinophils was “reduce the survival of eosinophils”.

What does the source list for C=CC1=C(C)c2cc3[n-]c(cc4[n-]c(cc5nc(cc1n2)C(C)=C5C=C)c(C)c4CCC(=O)O)c(CCC(=O)O)c3C.[Zn+2] [ZnPP-IX, Zinc-Protoporphyrin IX]?
Marking of apoptotic nuclei by the TUNEL method (eosinophils [2]): appear marked; Pharmacological effects (neonatal jaundice [3]): Reduces neonatal jaundice; Pharmacological effects (steroidogenesis) (steroidogenesis): No effect on steroidogenesis; Pharmacological effects (inhibition of intestinal, splenic and hepatic hemoxygenesis) [4]: No inhibitory effect on intestinal,; Apoptosis of eosinophils (percentage of apoptotic eosinophils) (human eosinophils; 24 hrs): 45 ± 15; Apoptosis of eosinophils (percentage of apoptotic eosinophils) (human eosinophils; 48 hrs): 99 ± 1; Activity on the survival and apoptosis of the eosinophils (FIG. 2) (human eosinophils; average of two representative experiments): dosedependant activity; Induction of the apoptosis of eosinophils (human eosinophils; in stronger concentrations of IL5 (10 pM)): induces the apoptosis of eosinophils; Effect on apoptosis of the eosinophils (human eosinophils; in the absence of IL-5): accelerates the apoptosis; Number of apoptotic cells (human eosinophils; 24 hrs): very small; Number of apoptotic cells (human eosinophils; 48 hrs): practically all the cells are apoptotic; Apoptosis of eosinophils (percentage of apoptotic eosinophils) (human eosinophils; time 0): 0; Storage stability [5]: at least 1 year; Toxicity in animals [6]: No toxicity has been reported; also recorded: No harmful effects were revealed; Pharmacological effects (cerebral ischemia; Kadoya et al, 1995): Protects from cerebral ischemia; Pharmacological effects (cerebral ischemia; Zhao et al, 1996): Protects from cerebral ischemia; Inflammatory infiltrate in peritoneal wash [7]: reduces the inflammatory infiltrate; Number of eosinophils in the tissues [7]: large decrease; Pharmacological effects (hyperbilirubinemia due to iatrogenic hemolysis) [8]: Reduces hyperbilirubinemia due to; Pharmacological effects (inflammation): Anti-inflammatory effect; Pharmacological effects (neonatal jaundice [9]): Reduces neonatal jaundice; Pharmacological effects (phototoxicity) [10]: No phototoxic effect; Pharmacological effects (neonatal jaundice [11]): Reduces neonatal jaundice
